# Experimental data from patent US9125928B2, “Agent for suppressing the formation of abnormal skin cells caused by exposure to light” (OTSUKA PHARMACEUTICAL CO., LTD., priority 2010, dated 2015).
# Tests used:
# caspase 3 = experiment: Caspase 3 activity in human epidermal keratinocytes treated with AMP2Na, with or without UV-B irradiation; format: cell-based
# Source text: The present Example examined a change in the caspase activity when human epidermal cells treated with disodium adenosine 5′-monophosphate (AMP2Na) were irradiated with ultraviolet light.
# Human epidermal keratinocytes (purchased from Kurabo Industries Ltd.) were precultured using EpiLife-KG2 culture medium (produced by Kurabo Industries Ltd.) in 10 cm collagen-coated petri dishes (produced by Asahi Glass Co., Ltd.), and seeded at a density of 30,000 cells/well into a collagen-coated 96-well microplate. After cultivation in the EpiLife-KG2 culture medium for 8 hours, the culture medium was replaced with EpiLife culture medium (produced by Kurabo Industries Ltd.), followed by cultivation for an additional 16 hours. Subsequently, the culture medium was replaced with AMP2Na-containing culture medium adjusted to various concentrations. […] Subsequently, the activity of caspase 3 expressed in the cells were measured using a SensoLyte™ Rh110 Caspase 3 Assay Kit (produced by AnaSpec, Inc.). […] Further, in order to examine influences that AMP2Na affect the caspase activity of normal cells, caspase activity of the cells that were not irradiated with UV-B but treated with AMP2Na was determined. […]
# JB6 cells = experiment: Amount of cyclobutane pyrimidine dimers (CPD) in genomic DNA of UV-B irradiated JB6 cells, by ELISA; format: cell-based, mouse; settings: 15 mJ/cm^2 UV-B, 48 h
# Procedure: In this Example, normal mouse epidermal cells were irradiated with ultraviolet light, and then cultured in an AMP2Na-containing culture medium. Using the amount of cyclobutane pyrimidine dimers (CPD) as an index, the action of AMP2Na to reduce DNA mutation was examined.
# Normal mouse epidermal cell-derived JB6 cells (purchased from ATCC) were cultured in an FBS-containing MEM culture medium until subconfluent. Subsequently, 4×10^5 cultured cells were seeded into a 3.5 cm-dish with MEM (minimum essential medium) culture medium containing FBS (fetal bovine serum). Next day after the seeding, the culture medium was replaced with a serum-free MEM culture medium for serum starvation. Subsequently, the culture medium was replaced with PBS, followed by the irradiation with 15 mJ/cm^2 of UV-B. After ultraviolet irradiation, the culture medium was replaced with serum-free MEM culture medium containing 0.01 mM, 0.1 mM, or 1 mM AMP2Na or AMP2Na-free culture-medium (control). After the replacement of the culture medium, the cells were cultured with 5% CO2 at 37° C. for 48 hours, and then collected.
# Genomic DNA was extracted from the collected cells using a FastPure (trademark) DNA kit (Takara Bio Inc.). The extraction was carried out in accordance with the kit manual.
# The amount of CPD in genomic DNA extracted from each cell was measured using ELISA. In particular, the extracted genomic DNA was heated at 100° C. for 10 minutes, and cooled on ice. Subsequently, genomic DNA was dispensed (50 μL/well) into a 96-well microplate coated with protamine sulfate, and dried. The following day, each of the wells was washed with PBS-T (PBS with Tween 20), and FBS-containing PBS was dispensed into each of the wells. The wells were then kept for 30 minutes at 37° C. […] Subsequently, the absorbance values at 492 nm were measured, and the amount of CPD in genomic DNA was calculated to determine the rate of change of CPD (variation in the relative amount of CPD; %) under each condition when the amount of CPD in the case of cultivation in the AMP2Na-free culture medium was assigned a value of 100%.
# Hos:HR-1 mice = experiment: Preventive effect on skin cancer in ultraviolet light-irradiated hairless mice; format: in vivo; settings: 3% AMP2Na in 20% ethanol aqueous solution, 0.1 mL on the back twice a day, 5 days a week
# Procedure: In this Example, hairless mice were irradiated with ultraviolet light, and the preventive effect of AMP2Na against photocarcinogenesis in the mice was examined.
# 5-week-old female Hos:HR-1 mice were purchased from Japan SLC, Inc., and from the age of 7 weeks, ultraviolet light (UV-B) irradiation was performed on their back. The ultraviolet irradiation (irradiation amount per time: 60 mJ/cm^2) was performed once a day, 5 days a week, for 12 weeks.
# Then, a 20% ethanol aqueous solution containing 3% of AMP2Na dissolved therein (test solution) and a 20% ethanol aqueous solution containing no AMP2Na (base) were prepared.
# After feeding the ultraviolet light-irradiated mice under normal conditions for 1 week, the mice were divided into 3 groups (6 mice in each group) under the conditions shown in Table 1, and fed for 12 weeks.
# The development of tumors was determined, and the number of tumors was counted.
# [1] = 6th week from start of application
smiles,measurement,setting,value
"Nc1ncnc2c1ncn2[C@@H]1O[C@H](COP(=O)([O-])[O-])[C@@H](O)[C@H]1O.[Na+].[Na+] [AMP2Na, disodium adenosine 5′-monophosphate]",caspase activity,"caspase 3; human epidermal keratinocytes pretreated 2 h with AMP2Na, then 30 mJ/cm^2 UV-B, measured after 6 h cultivation",significant increase in the caspase activity
same,caspase activity,"caspase 3; non-ultraviolet-irradiated human epidermal keratinocytes, 2 h treatment with AMP2Na-containing medium at various concentrations",almost no increase in the caspase activity
same,relative amount of CPD,"JB6 cells; then 0.1 mM AMP2Na, versus control",decrease in the relative amount of CPD compared to the control group was significant
same,relative amount of CPD,"JB6 cells; then 1 mM AMP2Na, versus control",decrease in the relative amount of CPD compared to the control group was significant
same,relative amount of CPD,"JB6 cells; then AMP2Na added (0.01, 0.1 or 1 mM), AMP2Na-free control = 100%",decreased compared to the control group
same,average number of tumors developed per mouse,Hos:HR-1 mice; [1],0
same,tumor formation on the back of the mice,Hos:HR-1 mice; [1],not in the test solution-applied group
same,tumor incidence,Hos:HR-1 mice; [1],0%
same,tumor incidence,Hos:HR-1 mice; 12th week from start of application,17%
